Common to all, as to assay: Plate-bound mCD1d fusion protein hybridoma stimulation assay (IL-2 ELISA)
Holding throughout (assay type): cell-based, mouse

The subject of one assay is 24.8.A hybridoma. As to conditions: 24.8 A NKT hybridoma; plate-bound mCD1d-IgGFc2a fusion protein preincubated with lipid antigen. An excerpt:
(§1) The CD1d-restricted T cell clones 24.7, 24.8, 24.9 (NKT cell) and 14S.6, 14S.7, 14S.10, and 14S.15 (diverse TCRs) were all derived from spleen of wild type C57BL/6 mice, as described previously (Behar, S. M. et al., J. Immunol., 162:161-7 (1999)). To generate T cell hybridomas, the activated T cells were fused to the aminopterin-sensitive BW5147 αβTCR^− thymoma cell line using PEG1500, and hybrids were selected in HAT medium (Life Technologies, Gaithersburg, Md.). Resulting TT hybridomas were tested for recognition of RMA-S cells transfected with mCD1D1 compared to untransfected RMA-S cells, as described below. […] The hybridomas are distinguished from the original T cell clones by the addition of a letter to their names. The KT/7, KT/12, KT/22, and KT/23 and Vβ/9 NKT cell hybridomas were derived from NK1.1^+ T cells enriched from spleen of C57BL/6 mice by depletion of CD8+ T cells, naive T cells, and B cells by mAbs (anti-B220, CD8, and CD62L, or anti-CD8α, CD8β, and Me114) bound to magnetic microbeads, or to plastic. The purified cells were stimulated either by the anti-CD3 KT3 mAb (KT/7, KT/12, KT/22, KT/23), or by an anti-Vβ8.2 mAb (Vβ/9), and addition of IL-2 or IL-2 and IL-7. After 4-5 days of culture the cells were fused with BW5147 thymoma cells. The VII68, VIII24, XVI9, and XV104 diverse TCR hybridomas were generated from CD4^+ T cells from class 110 mice, as described previously (Cardell, S. et al., J. Exp. Med., 182:993-1004 (1995)). The DN32D3 hybridoma was derived as described (Lantz, O., and Bendelac, A., J. Exp. Med., 180:1097-106 (1994).
(§2) To test for recognition of the mCD1d fusion protein and purified or synthetic antigens, 96 well protein A coated plates (Pierce Chemical Company) were incubated with 400-600 ng/well of the fusion protein or a negative control IgG2a antibody, RPC5.4 or UPC10, in PBS, at pH 7.2. Lipid antigens were diluted into PBS and added where specified at the indicated molar ratio of antigen to fusion protein, (when not specified the ratio was 40:1). Protein A plates containing the fusion protein and antigen were incubated 24-48 hr at 37° C., then washed three times with 200 μl/well sterile PBS, pH 7.2, and two times with 200 μl/well sterile culture medium (containing RPMI supplemented with L-glutamine and penicillin/streptomycin, Life Technologies, Gaithersburg, Md., and 10% bovine calf serum, Hyclone Laboratories, Logan, Utah). For assays in which the PI was phospholipase treated, it was first diluted into 0.01M Tris, 0.15M NaCl, pH 7.5, containing 0.25 U PI-specific phospholipase C or 0.5 U phospholipase D (Sigma, St Louis, Mo.), and incubated 30 minutes at room temperature, then added to the protein A plates as described above. For assays in which the pH was varied during antigen incubation with the fusion protein, the fusion protein and α-GalCer were diluted into a 20 mM citrate/phosphate buffer of the specified pH, which contained 0.15 M NaCl, and after incubation, the samples were neutralized by addition of 1M Tris, pH 7.5. Hybridoma cells were added to fusion protein/antigen treated plates at a concentration of 1×10^5 cells/well, in a total volume of 150 μl/well. Assays were performed using 2-6 replicate wells. In some assays, an anti-mCD1d blocking antibody (19G11) was included at a final concentration of 20 μg/ml. The plates were incubated at 37° C. for 16-20 hr, and culture supernatants were withdrawn for analysis. Each experiment was performed at least three times.
IL-2 secreted in the hybridoma stimulation assays was quantitated in a double antibody sandwich ELISA, by comparison to a standard curve of purified murine IL-2 (Pharmingen, San Diego, Calif.). Hybridoma plate stimulation supernatants (used either neat or diluted) and serially diluted IL-2 standards were added to 96 well ELISA plates coated with a rat anti-mouse IL-2 capture antibody (Pharmingen).

A further assay relates to 14S.10.C hybridoma. Particulars: 14S.10 C diverse TCR hybridoma; plate-bound mCD1d-IgGFc2a fusion protein preincubated with lipid antigen.
Text: as §1, §2
(§3) IL-2 secreted in the hybridoma stimulation assays was quantitated in a double antibody sandwich ELISA, by comparison to a standard curve of purified murine IL-2 (Pharmingen, San Diego, Calif.). Hybridoma plate stimulation supernatants (used either neat or diluted) and serially diluted IL-2 standards were added to 96 well ELISA plates coated with a rat anti-mouse IL-2 capture antibody (Pharmingen). […]

The next assay has as its system 14S.15.A hybridoma. As to conditions: 14S.15.A diverse TCR hybridoma; plate-bound mCD1d-IgGFc2a fusion protein preincubated with lipid antigen.
Text: as §1, §2, §3

The next assay has as its system 14S.6.A hybridoma. Particulars: 14S.6.A diverse TCR hybridoma; plate-bound mCD1d-IgGFc2a fusion protein preincubated with lipid antigen.
Text: as §1, §2, §3

A further assay deals with 14S.7.N hybridoma. Particulars: 14S.7.N diverse TCR hybridoma; plate-bound mCD1d-IgGFc2a fusion protein preincubated with lipid antigen.
Text: as §1, §2, §3

For a further assay, the system named is 24.7.C hybridoma. Particulars: 24 7.C NKT hybridoma; plate-bound mCD1d-IgGFc2a fusion protein preincubated with lipid antigen.
Text: as §1, §2, §3

A further assay relates to 24.9.E hybridoma. As to conditions: for IL-2 secretion: 24.9 E NKT hybridoma, plate-bound mCD1d-IgGFc2a fusion protein preincubated with lipid antigen.
Text: as §1, §2, §3

Another assay relates to DN32D3 hybridoma. As to conditions: DN32D3 NKT hybridoma; plate-bound mCD1d-IgGFc2a fusion protein preincubated with lipid antigen.
Text: as §1, §2, §3

The subject of a further assay is KT/12 hybridoma. Particulars: KT/12 NKT hybridoma; plate-bound mCD1d-IgGFc2a fusion protein preincubated with lipid antigen.
Text: as §1, §2, §3

The subject of another assay is KT/22 hybridoma. As to conditions: KT/22 NKT hybridoma; plate-bound mCD1d-IgGFc2a fusion protein preincubated with lipid antigen.
Text: as §1, §2, §3

The test system of another assay is KT/23 hybridoma. Particulars: KT/23 NKT hybridoma; plate-bound mCD1d-IgGFc2a fusion protein preincubated with lipid antigen.
Text: as §1, §2, §3

For another assay, the system named is KT/7 hybridoma. Particulars: KT/7 NKT hybridoma; plate-bound mCD1d-IgGFc2a fusion protein preincubated with lipid antigen.
Text: as §1, §2, §3

A further assay deals with VII68 hybridoma. As to conditions: VII68 diverse TCR hybridoma; plate-bound mCD1d-IgGFc2a fusion protein preincubated with lipid antigen.
Text: as §1, §2, §3

The subject of another assay is VIII24 hybridoma. As to conditions: VIII24 diverse TCR hybridoma; plate-bound mCD1d-IgGFc2a fusion protein preincubated with lipid antigen.
Text: as §1, §2, §3

The test system of a further assay is Vβ/9 hybridoma. Particulars: Vβ/9 NKT hybridoma; plate-bound mCD1d-IgGFc2a fusion protein preincubated with lipid antigen.
Text: as §1, §2, §3

The next assay relates to XV104 hybridoma. Particulars: XV104 diverse TCR hybridoma; plate-bound mCD1d-IgGFc2a fusion protein preincubated with lipid antigen.
Text: as §1, §2, §3

The next assay concerns XV19 hybridoma. As to conditions: XV19 diverse TCR hybridoma; plate-bound mCD1d-IgGFc2a fusion protein preincubated with lipid antigen.
Text: as §1, §2, §3

As for gangliotriosyl ceramide [aGM2], the IL-2 secretion entry is listed as “+ (“+” indicates 50-250 pg/ml)” in the assay with 24.8.A hybridoma; 0 (A “0” indicates a mean of less than 50 pg/ml IL-2 was secreted) in the assay with 14S.10.C hybridoma; 0 (A “0” indicates a mean of less than 50 pg/ml IL-2 was secreted) in the assay with 14S.15.A hybridoma; 0 (A “0” indicates a mean of less than 50 pg/ml IL-2 was secreted) in the assay on 14S.6.A hybridoma; 0 (A “0” indicates a mean of less than 50 pg/ml IL-2 was secreted) with 14S.7.N hybridoma; 0 (A “0” indicates a mean of less than 50 pg/ml IL-2 was secreted) in the assay with 24.7.C hybridoma. For the same substance, the IL-2 secretion in the assay on 24.9.E hybridoma, in the assay on DN32D3 hybridoma, in the assay with KT/12 hybridoma, with KT/22 hybridoma, with KT/23 hybridoma and in the assay on KT/7 hybridoma was 0 (A “0” indicates a mean of less than 50 pg/ml IL-2 was secreted) throughout. Moreover, the IL-2 secretion in the assay with VII68 hybridoma, in the assay with VIII24 hybridoma, with Vβ/9 hybridoma, with XV104 hybridoma and in the assay with XV19 hybridoma was 0 (A “0” indicates a mean of less than 50 pg/ml IL-2 was secreted) each time. For the same substance, in the assay with 24.9.E hybridoma (24.9.E hybridoma), the “IL-2 response to mCD1d fusion protein pre-treated with purified or synthetic lipid” value is on record as “not recognized”.

As for disialoganglioside [GD1a], the IL-2 secretion with 24.8.A hybridoma, in the assay on 14S.10.C hybridoma, in the assay with 14S.15.A hybridoma, with 14S.6.A hybridoma, with 14S.7.N hybridoma and in the assay with 24.7.C hybridoma was 0 (A “0” indicates a mean of less than 50 pg/ml IL-2 was secreted) in each case. For the same substance, the IL-2 secretion in the assay with 24.9.E hybridoma, in the assay with DN32D3 hybridoma, in the assay with KT/12 hybridoma, with KT/22 hybridoma, with KT/23 hybridoma and in the assay on KT/7 hybridoma was 0 (A “0” indicates a mean of less than 50 pg/ml IL-2 was secreted) each time. Besides, the IL-2 secretion with VII68 hybridoma, in the assay with VIII24 hybridoma, in the assay on Vβ/9 hybridoma, in the assay with XV104 hybridoma and with XV19 hybridoma was 0 (A “0” indicates a mean of less than 50 pg/ml IL-2 was secreted) throughout.
